Key:
[1] = target: T1, FGF6 (Homo sapiens, UniProt P10767); test: SPR analysis of FGF/ARPCA interaction, FGF6; format: binding; details: immobilized FGF6
T1 sequence (P10767 38-208): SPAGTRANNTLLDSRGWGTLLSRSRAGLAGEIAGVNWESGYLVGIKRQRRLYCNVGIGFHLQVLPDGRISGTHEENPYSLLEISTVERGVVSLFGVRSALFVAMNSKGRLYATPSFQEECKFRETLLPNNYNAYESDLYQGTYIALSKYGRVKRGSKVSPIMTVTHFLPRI

[2] = target: T2, FGF10 (Homo sapiens, UniProt O15520); test: SPR analysis of FGF/ARPCA interaction, FGF10; format: binding; details: immobilized FGF10
T2 sequence (O15520 38-208): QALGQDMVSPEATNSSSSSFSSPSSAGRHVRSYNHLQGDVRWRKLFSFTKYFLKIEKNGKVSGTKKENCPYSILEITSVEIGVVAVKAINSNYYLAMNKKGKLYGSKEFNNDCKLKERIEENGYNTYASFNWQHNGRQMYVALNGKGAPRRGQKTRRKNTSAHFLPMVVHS

[3] = target: T3, FGF23 (Homo sapiens, UniProt Q9GZV9); test: SPR analysis of ARPCA on immobilized FGF23; format: binding; details: data not shown
T3 sequence (Q9GZV9 25-251): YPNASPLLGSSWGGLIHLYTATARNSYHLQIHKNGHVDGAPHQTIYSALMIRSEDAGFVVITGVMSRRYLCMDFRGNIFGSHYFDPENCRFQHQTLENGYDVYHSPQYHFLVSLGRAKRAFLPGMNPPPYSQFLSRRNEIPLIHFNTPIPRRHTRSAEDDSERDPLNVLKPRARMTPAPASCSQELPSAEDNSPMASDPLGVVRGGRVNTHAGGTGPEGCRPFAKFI

[4] = test system: S115 cells; test: S115 cell proliferation assay; format: cell-based, mouse; details: 30 ng/ml FGF8b or 10 nM DHT, 48 h, viable cell counting
Method: HUVECs were seeded at 18000 cells/cm^2 in medium containing 2.5% FBS and stimulated with 30 ng/ml FGF8b in the absence or presence of increasing concentrations of ARPCA or ARPVA. S115 cells were seeded at 15000 cells/cm^2 in medium containing 4% hormone-deprived dextran-coated charcoal-stripped heat inactivated FBS, followed by 24 h serum starvation in 1:1 mixture of serum-free Ham's F12 and DMEM. Cells were stimulated for 48 h with 30 ng/ml FGF8b or 10 nM DHT in the presence or absence of different concentrations of ARPCA or ARPVA (as specified in the corresponding figures). Viable cell counts were obtained by the counting function of the MACSQuant® Analyzer (Miltenyi Biotec, Bergisch-Gladbach, Germany, EU).

[5] = test system: S115 cells grafted onto the chick embryo CAM; test: CAM assay with DHT-treated S115 cell grafts; format: in vivo; details: 2.5 × 10^4 cells/embryo; ARPCA 80 or 140 pmoles/embryo, ARPVA 140 pmoles/embryo; day 14
Method: Alginate plugs containing vehicle, FGF8b (4.5 pmoles/embryo), VEGF-A (4.5 pmoles/embryo) or S115 cells (2.5×10^4/embryo) in the absence or presence of ARPCA (80 or 140 pmoles/embryo) or ARPVA (140 pmoles/embryo) were placed on the CAM of fertilized white leghorn chicken eggs at day 11 of incubation. At day 14, newly formed blood microvessels converging toward the implant were counted by two observers in a double-blind fashion at 5x magnification under a stereomicroscope (STEMI-SR, x2/0.12; Zeiss) as described.

[6] = test system: S115 tumor grafts; test: Murine s.c. alginate implant assay, S115 cells; format: in vivo, athymic Nu/Nu male mice; details: i.p. 100 mg/kg every other day, plugs harvested day 14, compared to ARPVA-treated animals
Method: (§1) Eightweek-old athymic Nu/Nu or C57BL/6 male mice were injected s.c. with 450 μl of 3% (w/v) sodium alginate solution (alginic acid dissolved in LPS-free PBS) containing 5×10^6 S115 or 8×10^6 TRAMP-C2 cells, respectively. Mice were treated i.p. with ARPCA or ARPVA (100 mg/kg) on day 7, 9, 11 and 13 after implant. On day 14, alginate gels were harvested, weighted, embedded in OCT-compound and immediately frozen to be processed for histological analysis. For immunofluorescence stainings, sections (5 μm thick) were obtained with a cryostat microtome, air dried and fixed with acetone (for 5 min at 4°C). After blocking with 1% BSA (Bovine Serum Albumin) in PBS for 10 minutes, sections were incubated with primary antibodies, rabbit anti-FGFR1 (Santa Cruz Biotechnology), rabbit anti-phospho FGFR1 (Santa Cruz Biotechnology), Ki67 (Dako, Milano, Italy, EU) or CD31 (BD Biosciences Pharmingen, San Diego, CA, USA). After washing with PBS containing 0.05% Tween 20, sections were incubated with the appropriate Alexa Fluor 488 or Alexa Fluor 594-conjugated secondary antibody (Invitrogen). After mounting in a drop of anti-bleaching mounting medium containing DAPI (Vectashield, Vector Laboratories, Burlingame, CA, USA), sections were examined under a Zeiss Fluorescence Axiovert 200M microscope (Carl Zeiss).

[7] = test system: TRAMP-C2 alginate plugs; test: Murine s.c. alginate implant assay, TRAMP-C2 cells; format: in vivo, C57BL/6 male mice; details: i.p. at 100 mg/kg every other day
Method: as §1

[8] = test system: TRAMP-C2 tumor grafts; test: In vivo tumor therapy study, TRAMP-C2 tumors; parameters: species or system C57BL/6 male mice; details: s.c. TRAMP-C2 cells, i.p. 100 mg/kg every other day
Method: Eight week old C57BL/6 male mice were injected s.c. with 8×10^6 TRAMP-C2 cells, and eight week old athymic Nu/Nu male mice were injected s.c. with 5×10^6 S115 cells. All injections were performed in 200 μl total volume of PBS into the dorsolateral flank. When tumors were palpable treatment was performed every other day by i.p. injection of ARPCA, ARPVA (both at 100 mg/kg) or vehicle (PBS) in 100 μl final volume. Tumors were measured in two dimensions and tumor volume was calculated according to the formula V=(D × d^2)/2, where D and d are the major and minor perpendicular tumor diameters, respectively. At the end of the experimental procedure tumors were harvested, weighted and photographed.

[9] = mouse, in vivo, ip, 100 mg/kg
Method: Eight week-old C57BL/6 mice were treated i.p. with 100 mg/kg of ARPCA every other day for two weeks. During this period, animals were weighted for body weight variation analysis. At the end of treatment, whole blood and serum were harvested and analysed for blood components, biochemical serum parameters and circulating levels of FGF23. The serum levels of FGF23 were assessed by ELISA (Uscn Life Science Inc., Wuhan, PRC, Asia) according to manufacturer's instructions. Untreated mice were used as reference/control.

Substance: Ac-ARPCA-NH2 [ARPCA, Ac-ARPCA-NH2]
- Kd, FGF6 [1]: n.b.
- Kd, FGF10 [2]: n.b.
- interaction with immobilized FGF23 [3]: did not show any interaction
- mitogenic response of S115 cells to FGF8b or DHT [4]: impairs the mitogenic response
- neovascular response elicited by DHT-pretreated S115 cells on the CAM [5]: abolished
- CD31+ neovascularization in S115 tumor grafts [6]: efficiently inhibited
- FGFR1 phosphorylation in S115 tumor grafts [6]: efficiently inhibited
- Ki67+ proliferation index in S115 tumor grafts [6]: efficiently inhibited
- CD31-positive tumor vascularization in TRAMP-C2 alginate plugs [7]: decrease
- FGFR1 activation in TRAMP-C2 alginate plugs [7]: impaired FGFR1 activation
- tumor cell proliferation rate (Ki67 immunostaining) in TRAMP-C2 alginate plugs [7]: decrease
- growth of TRAMP-C2 tumor grafts, long-term assay [8]: inhibited the growth of TRAMP-C2 tumor grafts
- systemic toxic effect in treated animals [9]: absence of any systemic toxic effect

From publication PMC4537050, “A long pentraxin-3-derived pentapeptide for the therapy of FGF8b-driven steroid hormone-regulated cancers” (Oncotarget, 2015)
